Key:
Format in all cases: cell-based
[1] = system: human adipose-derived stem cells; assay: Cell activity / proliferation by CCK-8 kit (Example 6); details: for cell activity rates / proliferation of human adipose-derived stem cells compared to a control: FIG. 6; for concentration at which the substance showed the highest cell activity: tested at 0.2 ppm, 2 ppm and 20 ppm
Procedure: Human adipose-derived stem cells were purchased from Lonza, Inc. (Walkersville, Md., USA) and incubated in a CO2 incubator at 37° C. under 5% CO2 conditions. After the human adipose-derived stem cells were treated with 0.2 ppm, 2 ppm, and 20 ppm, respectively, cell activities thereof were identified using a CCK-8 kit (Dojindo).

[2] = system: human adipose-derived stem cells; assay: Quantified differentiation: eluted Oil Red O, absorbance at 490 nm (Example 3); details: Oil Red O eluted with isopropanol, absorbance 490 nm; compared with negative control (differentiation medium only); FIG. 2
Procedure: (§1) Human adipose-derived stem cells were purchased from Lonza, Inc. (Walkersvile, Md., USA) and cultured according to guidelines of Lonza, Inc. Differentiation into adipose cells was evaluated using a differentiation medium recommended by Lonza, Inc. As a positive control, the cells were treated with 1 μM rosiglitazone together with the differentiation medium. In order to induce differentiation of human adipose-derived stem cells into adipose cells, a cell culture solution was removed at 3 to 5 days after cell culturing was initiated, and the cells were treated with formononetin, acetyl mandelic acid, Magnoliae cortex extract, and the positive control for 14 days.
(§2) At 14 days after differentiation was initiated, the cell culture solution was removed, and the cells were washed with a phosphate buffer (DPBS) and immobilized using 10% formalin. The immobilized cells were observed using a microscope after staining fats and lipids contained in the adipose cells with Oil Red 0.
Cultured human adipose-derived stem cells were treated with 12 types of the compounds including formononetin and a Magnoliae cortex extract and an Aloe vera extract in the same manner as in Example 2. Stained Oil Red 0 was eluted using a 100% isopropanol solution, and absorbance thereof was measured at a wavelength of 490 nm and quantified. […] It was confirmed that the substances according to the present invention promoted differentiation of human adipose-derived stem cells into adipose cells and effectively promoted differentiation into adipose cells compared to non-differentiation substances such as kaempferol. Thus, the compositions including the substances according to the present invention may be used for anti-aging purposes to enhance skin elasticity and reduce skin wrinkles by promoting differentiation of human adipose-derived stem cells and increasing the number of subcutaneous fat cells.

[3] = system: human adipose-derived stem cells; assay: Oil Red O staining of differentiated adipose cells, observed by microscope (Example 2); details: treated 14 days; compared with negative control treated only with differentiation medium; FIG. 1
Procedure: as §1, §2

Compound	cell activity rates / proliferation of human adipose-derived stem cells compared to a control [1]	concentration at which the substance showed the highest cell activity [1] [ppm]	relative differentiation rate of human adipose-derived stem cells into adipose cells [2]	effects on differentiation of human adipose-derived stem cells into adipose cells (Oil Red O staining) [3]
O=C(O)CCCC[C@@H]1CCSS1 (racemic) [thioctic acid]	significantly increased	20	–	–
CC(=O)OC(C(=O)O)c1ccccc1 (stereo not shown) [acetyl mandelic acid, O-acetyl mandelic acid]	–	–	effectively promote differentiation	superior to those of the negative control
O=C(O)/C=C/c1ccc(O)c(O)c1 [caffeic acid]	significantly increased	20	effectively promote differentiation	–
CC(C)c1cc2c(c(O)c1O)[C@@]1(C(=O)O)CCCC(C)(C)[C@@H]1CC2 [carnosic acid]	significantly increased	2	effectively promote differentiation	–
Cc1cc(O)c2c(c1)C(=O)c1cc(O)cc(O)c1C2=O [emodin]	–	–	effectively promote differentiation	–
COc1ccc(-c2coc3cc(O)ccc3c2=O)cc1 [formononetin]	–	–	effectively promote differentiation	superior to those of the negative control
O=C(O)c1cc(O)c(O)c(O)c1 [gallic acid]	significantly increased	20	–	–
CC1(C)[C@@H](O)CC[C@]2(C)[C@H]3C(=O)C=C4[C@@H]5C[C@@](C)(C(=O)O)CC[C@]5(C)CC[C@@]4(C)[C@]3(C)CC[C@@H]12 [glycyrrhetinic acid]	significantly increased	20	–	–
O=C(O)/C=C/c1cccc(O)c1 [hydroxycinnamic acid, m-coumaric acid]	–	–	effectively promote differentiation	–
O=c1c(O)c(-c2ccc(O)cc2)oc2cc(O)cc(O)c12 [kaempferol, reference compound]	–	–	non-differentiation	–
Cc1cc2nc3c(=O)[nH]c(=O)nc-3n(C[C@H](O)[C@H](O)[C@H](O)CO)c2cc1C [lactoflavin, riboflavin]	significantly increased	20	–	–
CC(C)=CCC[C@@H](C)[C@H]1CC[C@@]2(C)C3=C(CC[C@]12C)[C@@]1(C)CC[C@H](O)C(C)(C)[C@@H]1CC3 [lanosterol]	significantly increased	2	–	–
CC1=CC(=O)c2ccccc2C1=O [menadione]	significantly increased	0.2	–	–
CCCCCCCCCCCCCCCC(N)=O [palmitamide]	–	–	effectively promote differentiation	–
CC(=O)CCc1ccc(O)cc1 [raspberry ketone]	significantly increased	20	–	–
Cc1cc(S(=O)(=O)[O-])c2c(C)ccc(C(C)C)cc1-2.[Na+] [sodium guaiazulene sulfonate]	–	–	effectively promote differentiation	–
Cc1cc2nc3c(=O)[nH]c(=O)nc-3n(C[C@H](O)[C@H](O)[C@H](O)COP(=O)([O-])O)c2cc1C.[Na+] [sodium riboflavin phosphate]	significantly increased	20	–	–
O=c1cccccc1O [tropolone]	significantly increased	2	–	–
COC1=C(OC)C(=O)C(C/C=C(\C)CC/C=C(\C)CC/C=C(\C)CC/C=C(\C)CC/C=C(\C)CC/C=C(\C)CC/C=C(\C)CC/C=C(\C)CC/C=C(\C)CCC=C(C)C)=C(C)C1=O [ubiquinone, ubiquinone 10]	–	–	effectively promote differentiation	–
CC1=C[C@H](O)CC(C)(C)[C@H]1/C=C/C(C)=C/C=C/C(C)=C/C=C/C=C(C)/C=C/C=C(C)/C=C/C1=C(C)C[C@@H](O)CC1(C)C [xanthophyll, lutein]	significantly increased	20	effectively promote differentiation	–
laccaic acid	–	–	effectively promote differentiation	–
terpineol	significantly increased	20	–	–

— patent publication US20210315799A1, “Composition for Promoting Differentiation or Proliferation of Human Adipose-Derived Stem Cell” (LG Household & Health Care Ltd., priority 2018, published 2021)
